One molecule from publication PMC12561670, “Isolation of Dual-Active Drugs with Anticancer and Antibacterial Activities That Target Both Tubulin and FtsZ” (Antibiotics, 2025) can be followed below.

≈ marks a conversion by molar mass, not a printed value.

The target of one assay is T1, S. aureus FtsZ (Staphylococcus aureus, UniProt P0A031).
T1 construct: His tag; made in house; host or cells: E. coli BL21(DE3)
T1 sequence (P0A031 1-390): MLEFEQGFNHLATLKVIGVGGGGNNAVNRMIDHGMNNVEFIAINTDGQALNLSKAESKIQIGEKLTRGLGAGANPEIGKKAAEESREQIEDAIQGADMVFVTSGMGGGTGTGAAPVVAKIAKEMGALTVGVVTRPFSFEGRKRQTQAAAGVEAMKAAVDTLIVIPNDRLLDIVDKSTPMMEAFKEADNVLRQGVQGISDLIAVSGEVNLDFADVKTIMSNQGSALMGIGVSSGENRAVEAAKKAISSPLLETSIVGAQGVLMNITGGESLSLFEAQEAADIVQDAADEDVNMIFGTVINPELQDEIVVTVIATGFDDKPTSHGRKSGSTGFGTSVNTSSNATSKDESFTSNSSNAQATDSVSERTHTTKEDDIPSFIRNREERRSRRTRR
The assay can be described thus: FtsZ polymerization assay (A340). The format is biochemical. The method, then:
The effect of compounds on S. aureus FtsZ polymerization was monitored by employing a microtiter plate-based spectrophotometric assay method, and the reactions were conducted in flat-bottomed 96-well microtiter plates. The degree of FtsZ polymerization was reflected by the corresponding changes in absorbance at 340 nm (A340). […] The polymerization reaction began immediately once 4 mM GTP was added, and then the polymerization was continuously monitored at 25 °C for 60 min by measuring A340 in BioTek-Synergy4 multifunctional enzyme-linked immunosorbent assay (ELISA) reader.

The next assay has as its system HepG2. Briefly: Antiproliferative activity, CCK8. To be noted: Homo sapiens, HepG2, 48 h, read-out: cell viability HepG2. The format is cell-based. The method, then: (§1) Antiproliferative activities of compounds were detected by employing the CCK8 method. HepG2, MCF-7, and Hela cells were cultured to log phase in DMEM medium supplemented with 10% fetal bovine serum. Cells were diluted to 2 × 10^4 cells/mL, and 100 µL of the obtained suspension was seeded in each well of the 96-well microplates, which were then cultured at 37 °C overnight. Subsequently, cells were treated with compounds at different concentrations. After co-culturing for 48 h, wells were washed with PBS three times and filled with 100 μL DMEM complete medium, which contained CCK8. After culturing for 2 h at 37 °C, the absorbance of measured and recorded on an ELISA reader (BioTek-Synergy 4, Winooski, VT, USA) at a test wavelength of 450 nm. Three replicate wells were employed for each drug concentration, and each assay was conducted at least three times.

Another assay concerns Hela. The assay can be described thus: Antiproliferative activity, CCK8. To be noted: Homo sapiens. It counts as cell-based. The procedure:
as §1

The next assay concerns MCF-7. The assay can be described thus: Antiproliferative activity, CCK8. It counts as cell-based. To be noted: Homo sapiens. The procedure:
as §1

The next assay relates to E. Coli BL21 (DE3). Briefly: Visualization of Z-ring in bacterial cells (GFP-tagged FtsZ). The format is cell-based. Conditions: 64 μM, 4 h. The method, then: The assay was carried out using a strain of E.coli BL21 (DE3) containing an IPTG-inducible plasmid, which can produce the green fluorescence protein (GFP)-tagged FtsZ to make the Z-ring visible. An overnight culture of E.coli was replated into 1 mL fresh MHB medium and incubated at 37 °C. Until OD600 = 0.3, 40 μM IPTG (Isopropyl β-D-1-thiogalactopyranoside) was added. […] After that, they were centrifuged and re-suspended in PBS, and then observed using the Leica SP-5 laser scanning confocal microscopy. Z-ring analysis was performed by employing LAS-AF-Lite software 2.6.0.

A further assay concerns S. aureus (ATCC 6538). The assay can be described thus: MIC, broth microdilution. The format is cell-based. To be noted: Staphylococcus aureus, ATCC6538; broth microdilution, 18 h, 37 °C; read-out: MIC S. aureus (ATCC 6538).
The test system of a further assay is A549. Briefly: Anticancer activity IC50. The format is cell-based. To be noted: Homo sapiens, abstract only.
Another assay concerns P. aeruginosa (DSM 939). The assay can be described thus: MIC, broth microdilution. It counts as cell-based. Conditions: Pseudomonas aeruginosa, DSM939; broth microdilution, 18 h, 37 °C; read-out: MIC P. aeruginosa (DSM 939). (In general: Broth dilution looks for growth in wells or tubes with falling amounts of substance.)
Another assay concerns B. subtilis (CICC 21164). Briefly: MIC, broth microdilution. It counts as cell-based. To be noted: Bacillus subtilis; broth microdilution, 18 h, 37 °C; read-out: MIC B. subtilis (CICC 21164). The method, then: MIC assays were carried out by employing the broth microdilution method in accordance with Clinical and Laboratory Standards Institute (CLSI) guidelines. E. coli BNCC337004, S. aureus BNCC336423, P. aeruginosa BNCC337099, and B. subtilis CICC 21164 were applied for the MIC detection. Mueller–Hinton broth (MHB) was used in bacterial culture, and log-phase bacteria were diluted into a 0.5 McFarland Standard suspension, which was then diluted 1000 times again. Subsequently, 100 μL of the obtained bacterial suspension was placed into each well of 96-well microtiter plates, along with 2-fold serial dilutions of compounds (512, 256, 128, 64, 32, 16, 8, 4, 2, 1, 0.5, 0 μM). The microtiter plates were incubated aerobically for 18 h at 37 °C. The MIC was defined as the lowest drug concentration at which no visible turbidity was observed. All experiments are conducted in three parallel.

[1] abbreviates: 48 h, read-out: cell viability Hela.
Where [2] appears, read: MCF7, 48 h, read-out: cell viability MCF-7.

In general, viability refers to a read-out of living cells in per cent, often relative to untreated cells. For orientation: IC50 means the concentration that inhibits the measured activity by half. Broadly, the MIC is the smallest concentration in the dilution series that meets the test's criterion for growth inhibition.

In the case of `CC(C)(C)c1[nH]cnc1/C=c1\[nH]c(=O)/c(=C/c2ccccc2)[nH]c1=O` [Compound 23, Plinabulin], the “effect on FtsZ polymerization (A340)” value at S. aureus FtsZ (50 μM compound, 5 µM FtsZ, 4 mM GTP, vs DMSO) is “remarkable promoting effect on FtsZ polymerization”. Moreover, on S. aureus FtsZ (5, 10, 20 and 50 μM, initial 10 min), the “effect on FtsZ polymerization at different concentrations” value is listed as “markedly accelerated FtsZ polymerization”. Further, the viability at 0.1 µM in the assay on HepG2 turned out to be 30.5%; in the assay on Hela (setting [1]), 26%; with MCF-7 (setting [2]), 27.5%. Also, the viability at 1 µM with HepG2 is 11.5%; in the assay with Hela (setting [1]), 19%; in the assay with MCF-7 (setting [2]), 10%. In addition, the IC50 in the assay with Hela (abstract only) turned out to be 10 nM; in the assay with MCF-7 (MCF7, abstract only), 20 nM; with A549 it was 12 nM. Moreover, the Z-ring assembly entry in the assay with E. Coli BL21 (DE3) is given as “disturbed the Z-ring assembly”. Also, the MIC worked out at 8 µM (≈ 2.69 µg/mL) in the assay with S. aureus (ATCC 6538), 32 µM (≈ 10.8 µg/mL) in the assay with P. aeruginosa (DSM 939) and 8 µM (≈ 2.69 µg/mL) in the assay on B. subtilis (CICC 21164).
